Non-standard residues stand in square brackets, D forms with d. Residues, ends and D or L forms follow the SMILES beside them. pGlu = O=C1CC[C@@H](C(=O)O)N1; Thz = O=C(O)[C@@H]1CSCN1
Legend:
[1] = tested on: Male Wistar rats; assay: Paracetamol intoxication in the rat, test after single i.p. administration; assay type: in vivo; settings: for Death rate % / % distribution of liver impairment degrees: degree 0 / % distribution of liver impairment degrees: degree 1 / % distribution of liver impairment degrees: degree 2 / % distribution of liver impairment degrees: degree 3: single administration; for Death rate %: 48 hours after paracetamol 5000 mg/kg oral; for % distribution of liver impairment degrees: degree 0: degree 0 = normal histologic examination; for % distribution of liver impairment degrees: degree 1: degree I = centrolobular necrosis less than 25% of the lobule; for % distribution of liver impairment degrees: degree 2: degree II = extended centrolobular necrosis; for % distribution of liver impairment degrees: degree 3: degree III = massive necrosis
Source text: (§1) Male Wistar rats, mean weight of 150±10 g were used, which, after suitable housing, were subjected to the test:
(a) Test after single i.p. administration
The animals were divided in 7 groups, comprising 20 animals each, according to the following scheme:
II group: PGTCA 4.1 μmoles/kg i.p.
III group: PGTCA 41 μmoles/kg i.p.
IV group: PGTCA 205 μmoles/kg i.p.
V group: PGA 4.1 μmoles/kg +TCA 4.1 μmoles/kg
VI group: PGA 41 μmoles/kg +TCA 41 μmoles/kg
VII group: PGA 205 umoles/kg +TCA 205 μmoles/kg.
The animals of each group, fasting since 12 hours, were treated with paracetamol at the dose of 5000 mg/kg by the oral route. The different pharmacological treatments were carried out contemporaneously with the paracetamol administration. After 48 hours from treatment, the death-rate was assessed in the various experimental groups. The liver was taken from the surviving animals, sacrificed by decapitation, and from the dead animals and an histopathologic examination was carried out.
The degree of liver impairment has been evaluated as: degree O: normal histologic examination degree I: centrolobular necrosis extended to less than 25% of the lobule degree II: extended centrolobular necrosis, with lesions bridging adjacent centrolobular areas degree III: massive necrosis.
(§2) In order to evaluate the lesion degree, 6 different sections were taken from each organ.

[2] = tested on: Male Wistar rats; assay: Paracetamol intoxication in the rat, test after repeated i.p. administration; assay type: in vivo; settings: for Death rate %: repeated administration (daily for 8 days and on), 48 hours after paracetamol 5000 mg/kg per os; for % distribution of liver impairment degrees: degree 0 / % distribution of liver impairment degrees: degree 1 / % distribution of liver impairment degrees: degree 2 / % distribution of liver impairment degrees: degree 3: repeated administration; for % distribution of liver impairment degrees: degree 0: degree 0 = normal histologic examination; for % distribution of liver impairment degrees: degree 1: degree I = centrolobular necrosis less than 25% of the lobule; for % distribution of liver impairment degrees: degree 2: degree II = extended centrolobular necrosis; for % distribution of liver impairment degrees: degree 3: degree III = massive necrosis
Source text: as §1
The degree of liver impairment has been evaluated as: degree O: normal histologic examination […]
degree II: extended centrolobular necrosis, with lesions bridging adjacent centrolobular areas degree III: massive necrosis.
as §2
(b) Test after repeated i.p. administration
The same treatment schedule as in (a) was used.
The animals of groups II-VII were treated daily for 8 days. At the 8th day, contemporaneously to the various considered pharmacological treatments, the animals of the 7 groups (fasting since 12 hours) were administered with paracetamol (5000 mg/kg per os).
After 48 hours from the paracetamol administration, the surviving animals were examined and the liver was subjected to the histopathologic examination.

[3] = tested on: Swiss male mice; assay: Effects on the consequences of exposure to ionizing radiation; assay type: in vivo, mouse; settings: for Death-rate % 10 gg: 10 days after 700 r of x rays; for Death-rate % 15 gg: 15 days after 700 r of x rays
Procedure: Swiss male mice weighing 30±5 g, divided in 7 groups of 20 animals each, were used according to the above reported schedule.
The pharmacological treatments were carried out for 15 days before the irradiation and prosecuted up to the end of the experiment. The control animals received the vehicle alone.
At the 15th day, all the animals were irradiated (Philip Metalix® apparatus, 180 KV, 15 mA, with Cu filter 0.5 mm +AI mm) with the administration of 700 r of x rays.
All the animals were checked daily, for 15 days after irradiation. The radio-protection degree was calculated as survival % at 10 and 15 days.

[4] = tested on: male rats; assay: Delayed-type hypersensitivity induced by dinitrochlorobenzene (DNCB); assay type: in vivo, rat
Procedure: (§3) For this purpose, male adult rats (5-6 months old) were used as animal model with normal immuno-competent system, and old rats (17-18 months) as a paraphysiological immunodeficiency model.
(§4) The PGTCA treatment has been carried out i.p. at the dose of 1, 10 or 50 mg/kg twice a day for 4 weeks. The used immunological tests were the delayed-type hypersensitivity induced by dinitrochlorobenzene (DNCB) and the T-lymphocyte response to concanavaline A (ConA).
After 4 weeks of PGTCA pre-treatment (or vehicle), 0.02 ml of DNCB (solubilized in acetone at the concentration of 200 mg/ml) was applied to each animal (5 rats per group) on the cutis of the back, on an area of about 1 cm^2. The subsequent inflammatory reaction was evaluated by measuring the diameter of the reddish area by means of a thickness gauge from day 1 to day 7.
During this period the animals were constantly treated.

[5] = tested on: T-lymphocyte response to concanavaline A; assay: Test of blastization with ConA (3H-thymidine incorporation) after in vivo treatment; set-up: species or system rat; settings: for 3H-thymidine cpm/well: ConA 2.5 μg/ml; for 3H-thymidine increase %: versus untreated
Procedure: as §3, §4
After 4 weeks of PGTCA treatment at the doses of 1,10 and 50 mg/kg, the animals were sacrificed and the spleen was removed in sterile conditions. The isolation of lymphocytes was obtained by an isolimph gradient. The lymphocytes were incubated in micro-walls, at the concentration of 1×10^6 cells/ml, in the presence of ConA (2.5 μg/ml), for 48 hours. The mitogen activity was evaluated by incorporation of ^3 H-thymidine for 16 hours.

[6] = tested on: T cells forming rosettes with sheep red blood cells; assay: T-cells forming rosette with sheep red blood cells; assay type: in vivo, mouse; settings: for No. rosette/10^6 spleen cells Var. %: versus controls
Procedure: In the mouse, a cytotoxic-kind of hypersensivity reaction, evaluated in the test of T cells forming rosettes with sheep red blood cells, was used (S.D. Wilson Immunology, 1971, 21, 233). […]
CD-I male mice weighing about 25 g are treated with PGTCA for 8 days. After 4 days from the start of the treatment the animals were immunized with 5×10^8 sheep red blood cells in 0.2 ml of PBS i.p. The rosette test was carried out 6 days after the immunization. The mice were killed and the spleen was removed and placed in ice cold Hank solution, triturated, homogenized and gauze filtered.
6×10^7 /ml of spleen cells +100 /μl of red blood cell suspension 3×10^8 /μul were mixed in 0.8 ml of Hank and stirred for 1 min.
The samples were incubated for 24 h at 4° C. without stirring and then, after stirring, the number of rosette forming cells/ml was determined by the Burker apparatus.

[7] = tested on: old rat; assay: Neurocerebral performances in the old rat; assay type: in vivo; settings: 10 mg/kg and even more at 50 mg/kg
[8] = tested on: male rat; assay: Sexual behaviour of the male rat; assay type: in vivo; settings: latencies and frequences of sexual acts
[9] = at the highest and at the intermediate dose
[10] = PGTCA 4.1 microm/kg ip from 15 days before irradiation
[11] = PGTCA 41 microm/kg ip from 15 days before irradiation
[12] = PGTCA 205 microm/kg ip from 15 days before irradiation
[13] = Mice not sensitized with red blood cells, 100 mg/kg b.i.d. i.p. for 8 days

SMILES: O=C1CC[C@@H](C(=O)N2CSC[C@H]2C(=O)O)N1 [PGTCA, 3-L-pyroglutamyl-Lthiazolidine-4-carboxylic acid] ([pGlu]-[Thz]-OH)
- liver impairment by an high dose of paracetamol ([1]; acute treatment, 205 μmoles/kg i.p. and 41 μmoles/kg i.p.): significant decrease
- death-rate by paracetamol [1, 9]: reduces the death-rate
- Death rate % ([1]; PGTCA 4.1 microm/kg ip): 85%
- % distribution of liver impairment degrees: degree 0 ([1]; PGTCA 4.1 microm/kg ip): 0%
- % distribution of liver impairment degrees: degree 1 ([1]; PGTCA 4.1 microm/kg ip): 0%
- % distribution of liver impairment degrees: degree 2 ([1]; PGTCA 4.1 microm/kg ip): 10%
- % distribution of liver impairment degrees: degree 3 ([1]; PGTCA 4.1 microm/kg ip): 90%
- Death rate % ([1]; PGTCA 41 microm/kg ip): 75%
- % distribution of liver impairment degrees: degree 0 ([1]; PGTCA 41 microm/kg ip): 0%
- % distribution of liver impairment degrees: degree 1 ([1]; PGTCA 41 microm/kg ip): 5%
- % distribution of liver impairment degrees: degree 2 ([1]; PGTCA 41 microm/kg ip): 20%
- % distribution of liver impairment degrees: degree 3 ([1]; PGTCA 41 microm/kg ip): 75%
- Death rate % ([1]; PGTCA 205 microm/kg ip): 60%
- % distribution of liver impairment degrees: degree 0 ([1]; PGTCA 205 microm/kg ip): 5%
- % distribution of liver impairment degrees: degree 1 ([1]; PGTCA 205 microm/kg ip): 15%
- % distribution of liver impairment degrees: degree 2 ([1]; PGTCA 205 microm/kg ip): 15%
- % distribution of liver impairment degrees: degree 3 ([1]; PGTCA 205 microm/kg ip): 65%
- Death rate % ([2]; PGTCA 4.1 microm/kg ip): 85%
- Death rate % ([2]; PGTCA 41 microm/kg ip): 70%
- Death rate % ([2]; PGTCA 205 microm/kg ip): 50%
- % distribution of liver impairment degrees: degree 0 ([2]; PGTCA 4.1 microm/kg ip): 0%
- % distribution of liver impairment degrees: degree 1 ([2]; PGTCA 4.1 microm/kg ip): 0%
- % distribution of liver impairment degrees: degree 2 ([2]; PGTCA 4.1 microm/kg ip): 10%
- % distribution of liver impairment degrees: degree 3 ([2]; PGTCA 4.1 microm/kg ip): 90%
- % distribution of liver impairment degrees: degree 0 ([2]; PGTCA 41 microm/kg ip): 0%
- % distribution of liver impairment degrees: degree 1 ([2]; PGTCA 41 microm/kg ip): 0%
- % distribution of liver impairment degrees: degree 2 ([2]; PGTCA 41 microm/kg ip): 35%
- % distribution of liver impairment degrees: degree 3 ([2]; PGTCA 41 microm/kg ip): 65%
- % distribution of liver impairment degrees: degree 0 ([2]; PGTCA 205 microm/kg ip): 5%
- % distribution of liver impairment degrees: degree 1 ([2]; PGTCA 205 microm/kg ip): 15%
- % distribution of liver impairment degrees: degree 2 ([2]; PGTCA 205 microm/kg ip): 25%
- % distribution of liver impairment degrees: degree 3 ([2]; PGTCA 205 microm/kg ip): 55%
- Death-rate % 10 gg [3, 10]: 20%
- Death-rate % 10 gg [3, 11]: 15%
- Death-rate % 10 gg [3, 12]: 10%
- Death-rate % 15 gg [3, 10]: 45%
- Death-rate % 15 gg [3, 11]: 20%
- Death-rate % 15 gg [3, 12]: 15%
- radioprotective activity [3, 9]: remarkable radioprotective activity
- response to DNCB, evaluated as inflammation area ([4]; old animals, already at the dose of 10 mg/kg): maximum enhancing increase
- response to DNCB, evaluated as inflammation area ([4]; young animals, only at the dose of 50 mg/kg): significant increase
- 3H-thymidine cpm/well ([5]; Adult rats (5-6 months), 1 mg/kg i.p. twice a day for 4 weeks): 31806 ± 970 cpm/well
- 3H-thymidine increase % ([5]; Adult rats (5-6 months), 1 mg/kg): -2.1%
- 3H-thymidine cpm/well ([5]; Adult rats (5-6 months), 10 mg/kg i.p. twice a day for 4 weeks): 34165 ± 540 cpm/well
- 3H-thymidine increase % ([5]; Adult rats (5-6 months), 10 mg/kg): +5.1%
- 3H-thymidine cpm/well ([5]; Adult rats (5-6 months), 50 mg/kg i.p. twice a day for 4 weeks): 35785 ± 240 cpm/well
- 3H-thymidine increase % ([5]; Adult rats (5-6 months), 50 mg/kg): +10.1%
- 3H-thymidine cpm/well ([5]; Old rats (17-18 months), 1 mg/kg i.p. twice a day for 4 weeks): 23553 ± 923 cpm/well
- 3H-thymidine increase % ([5]; Old rats (17-18 months), 1 mg/kg): +1.6%
- 3H-thymidine cpm/well ([5]; Old rats (17-18 months), 10 mg/kg i.p. twice a day for 4 weeks): 26012 ± 316 cpm/well
- 3H-thymidine increase % ([5]; Old rats (17-18 months), 10 mg/kg): +12.3%
- 3H-thymidine cpm/well ([5]; Old rats (17-18 months), 50 mg/kg i.p. twice a day for 4 weeks): 27540 ± 439 cpm/well
- 3H-thymidine increase % ([5]; Old rats (17-18 months), 50 mg/kg): +18.9%
- No. rosette/10^6 spleen cells m ± E.S. [6, 13]: 790 ± 170 rosette/10^6 spleen cells
- No. rosette/10^6 spleen cells Var. % [6, 13]: -12%
- No. rosette/10^6 spleen cells Var. % ([6]; Mice sensitized with red blood cells, 100 mg/kg b.i.d. i.p. for 8 days): +41%
- rosette number in comparison with the control ([6]; not sensitized animals): no significant change
- rosette number in comparison with the control ([6]; sensitized animals): significant increase
- improving the neurocerebral performances [7]: active
- sexual behaviour [8]: favourable influence

— US4839387A, “Derivative of thiazolidine-4-carboxylic acid, its preparation and pharmaceutical compositions containing it” (Poli Industria Chimica S.P.A., priority 1987, dated 1989)
